pIC50: −log10 of the molar value.
Legend:
NCI-H226 cells = assay: NCI-H226 proliferation assay (in house); format: cell-based; conditions: Homo sapiens, 120 h, 5 days, Cell TiterGlo, 20-point 1:2 dilution from 20 μM
Method: NCI-H226 Proliferation Assay
NCI-H226 cells were obtained from American Type Culture Collection (ATCC, CRL-5826) and cultured in RPMI 1640 with L-glutamine (Corning, 10-040-CV) supplemented with 10% fetal bovine serum (Gibco, 10438-026) and 1% penicillin-streptomycin (Gibco, 15070063). Cells were trypsinized, resuspended in growth medium, and diluted to a concentrated of 10,000 cells/mL. 500 cells, 50 μL of cell suspension, per well were then plated in a white 384-well plate (Corning) and incubated at 37° C., 5% CO2. After 24 hours incubation, 100 nL of test compounds in DMSO, 20-point 1:2 dilution starting from 20 μM (final concentration) in triplicate, were transferred to each well using an Agilent Bravo instrument outfitted with a pintool head. Cells were incubated at 37° C., 5% CO2 for 5 days followed by the addition of 30 μL of Cell TiterGlo (Promega; diluted 1:6 in water) to each well and luminescence values recorded using an EnVision plate reader. […]

[1] = tested on: transcriptional activity of TEADs; assay: TEAD reporter assay (MCF7 TEAD-LUC reporter cells); format: cell-based; conditions: Homo sapiens, 24 hours, BrightGlo luminescence
Method: MCF7 TEAD-LUC reporter cells were obtained from BPS Bioscience, Inc. and cultured in DMEM medium (Corning, 10-013-CV) supplemented with 10% fetal bovine serum (Gibco, 10438-026), 1% penicillin-streptomycin (Gibco, 15070063), 1% non-essential amino acids (Gibco, 15070063), and 10 μg/mL insulin (Sigma, 10516). Cells were trypsinized, resuspended in growth medium, and diluted to a concentrated of 100,000 cells/mL. 5,000 cells, 50 μL of cell suspension, per well were then plated in a white 384-well plate (Corning) and incubated at 37° C., 5% CO2. After 24 hours incubation, 100 nL of test compounds in DMSO, 20-point 1:2 dilution starting from 20 μM (final concentration) in triplicate, were transferred to each well using an Agilent Bravo instrument outfitted with a pintool head. Cells were incubated at 37° C., 5% CO2 for 24 hours followed by the addition of 30 μL of BrightGlo (Promega; diluted 1:3 in water) to each well and luminescence values recorded using an EnVision plate reader.
The in vitro assay results of the compounds in the present invention were included in Table 1. The compounds described herein, inhibited the transcriptional activity of TEADs, as assessed by decreased luminance from a TEAD reporter cell line (MCF7 TEAD-LUC) in response to compound treatment.

C=CC(=O)N[C@H]1C[C@H](Nc2nccnc2Nc2ccc(C(F)(F)F)cc2)C1 [Example 4, N-((1r,3r)-3-((3-((4-(trifluoromethyl)phenyl)amino)pyrazin-2-yl)amino)cyclobutyl) acrylamide]
IC50 (NCI-H226 cells): 23.9 µM | pIC50 [1]: 8.10

C=CC(=O)N1CCN(c2nccnc2Nc2ccc(C(F)(F)F)cc2)C[C@@H]1CCO [Example 17, (S)-1-(2-(2-hydroxyethyl)-4-(3-((4-(trifluoromethyl)phenyl)amino)pyrazin-2-yl)piperazin-1-yl)prop-2-en-1-one]
IC50 (NCI-H226 cells): 3.3 µM | pIC50 [1]: < 4.70

C=CC(=O)N1CCN(c2nccnc2Nc2ccc(C(F)(F)F)cc2)C[C@@H]1C(N)=O [Example 18, (R)-1-acryloyl-4-(3-((4-(trifluoromethyl)phenyl)amino)pyrazin-2-yl)piperazine-2-carboxamide]
IC50 (NCI-H226 cells): 0.701 µM | pIC50 [1]: 6.87

C=CC(=O)N1CCN(c2nccnc2Nc2ccc(C(F)(F)F)cc2)C[C@H]1C(N)=O [Example 19, (S)-1-acryloyl-4-(3-((4-(trifluoromethyl)phenyl)amino)pyrazin-2-yl)piperazine-2-carboxamide]
IC50 (NCI-H226 cells): > 20 µM | pIC50 [1]: < 4.70

C=CC(=O)N1CCN(c2nccnc2Nc2ccc(C(F)(F)F)cc2)CC1CC(N)=O (stereo not shown) [Example 20, 2-(1-acryloyl-4-(3-((4-(trifluoromethyl)phenyl)amino)pyrazin-2-yl)piperazin-2-yl)acetamide]
IC50 (NCI-H226 cells): 2.73 µM | pIC50 [1]: < 4.70

C=CC(=O)N1CCN(c2nccnc2Nc2ccc(OCF)cc2)CC1 [Example 36, 1-(4-(3-((4-(fluoromethoxy)phenyl)amino)pyrazin-2-yl)piperazin-1-yl)prop-2-en-1-one]
IC50 (NCI-H226 cells): 5.04 µM | pIC50 [1]: 8.30

C=CC(=O)N1CCN(c2nccnc2Nc2ccc(C(F)F)cn2)CC1 [Example 40, 1-(4-(3-((5-(difluoromethyl)pyridin-2-yl)amino)pyrazin-2-yl)piperazin-1-yl)prop-2-en-1-one]
IC50 (NCI-H226 cells): > 20 µM | pIC50 [1]: 8.40

C=CC(=O)N1CCN(c2nccnc2N(C)c2ccc(C(F)(F)F)cn2)CC1 [Example 42, 1-(4-(3-(methyl(5-(trifluoromethyl)pyridin-2-yl)amino)pyrazin-2-yl)piperazin-1-yl)prop-2-en-1-one]
IC50 (NCI-H226 cells): 0.166 µM | pIC50 [1]: 7.77

C=CC(=O)N1CCN(c2nccnc2Nc2ccc(C(F)F)nc2)CC1 [Example 47, 1-(4-(3-((6-(difluoromethyl)pyridin-3-yl)amino)pyrazin-2-yl)piperazin-1-yl)prop-2-en-1-one]
IC50 (NCI-H226 cells): 0.043 µM | pIC50 [1]: 8.40

C=C(F)C(=O)N1CCN(c2nccnc2Nc2cnc(C(F)(F)F)c(F)c2)CC1 [Example 51, 2-fluoro-1-(4-(3-((5-fluoro-6-(trifluoromethyl)pyridin-3-yl)amino)pyrazin-2-yl)piperazin-1-yl)prop-2-en-1-one]
IC50 (NCI-H226 cells): 0.331 µM | pIC50 [1]: 8.17

C=CC(=O)N1CCN(c2nccnc2Nc2ccc(C(F)(F)F)nc2)C[C@@H]1C [Example 53, (S)-1-(2-methyl-4-(3-((6-(trifluoromethyl)pyridin-3-yl)amino)pyrazin-2-yl)piperazin-1-yl)prop-2-en-1-one]
IC50 (NCI-H226 cells): 0.076 µM | pIC50 [1]: 8.44

C=CC(=O)N1CCN(c2nccnc2Nc2ccc(C(F)(F)F)nc2)C[C@H]1C [Example 54, (R)-1-(2-methyl-4-(3-((6-(trifluoromethyl)pyridin-3-yl)amino)pyrazin-2-yl)piperazin-1-yl)prop-2-en-1-one]
IC50 (NCI-H226 cells): 0.192 µM | pIC50 [1]: 8.05

C=C(F)C(=O)N1CC=C(c2nccnc2Nc2ccc(C(F)(F)F)nc2)CC1 [Example 56, 2-fluoro-1-(4-(3-((6-(trifluoromethyl)pyridin-3-yl)amino)pyrazin-2-yl)-3,6-dihydropyridin-1(2H)-yl)prop-2-en-1-one]
IC50 (NCI-H226 cells): 0.145 µM | pIC50 [1]: 7.78

C=CC(=O)N1CCC(c2nccnc2Nc2ccc(C(F)(F)F)nc2)CC1 [Example 61, 1-(4-(3-((6-(trifluoromethyl)pyridin-3-yl)amino)pyrazin-2-yl)piperidin-1-yl)prop-2-en-1-one]
IC50 (NCI-H226 cells): 0.257 µM | pIC50 [1]: 8.30

C=CC(=O)N1CC(Nc2nccnc2Nc2ccc(C(F)(F)F)nc2)C1 [Example 62, 1-(3-((3-((6-(trifluoromethyl)pyridin-3-yl)amino)pyrazin-2-yl)amino)azetidin-1-yl)prop-2-en-1-one]
IC50 (NCI-H226 cells): 8.67 µM | pIC50 [1]: 7.97

C=C(F)C(=O)N1CC(Nc2nccnc2Nc2ccc(OC(F)(F)F)nc2)C1 [Example 64, 2-fluoro-1-(3-((3-((6-(trifluoromethoxy)pyridin-3-yl)amino)pyrazin-2-yl)amino)azetidin-1-yl)prop-2-en-1-one]
IC50 (NCI-H226 cells): 3.12 µM | pIC50 [1]: 5.77

C=C(F)C(=O)N1CC(Oc2nccnc2Nc2ccc(C(F)(F)F)nc2)C1 [Example 65, 2-fluoro-1-(3-((3-((6-(trifluoromethyl)pyridin-3-yl)amino)pyrazin-2-yl)oxy)azetidin-1-yl)prop-2-en-1-one]
IC50 (NCI-H226 cells): 1.85 µM | pIC50 [1]: 7.73

C=C(F)C(=O)N1CCN(c2nccnc2NC2C3CC2C3C(F)(F)F)CC1 (stereo not shown) [Example 68, 2-fluoro-1-(4-(3-((4-(trifluoromethyl)bicyclo[1.1.1]pentan-2-yl)amino)pyrazin-2-yl)piperazin-1-yl)prop-2-en-1-one]
IC50 (NCI-H226 cells): 0.708 µM | pIC50 [1]: 7.96

C=CC(=O)N1CCN(c2nccnc2Oc2ccc(OC)cc2)CC1 [Example 70, 1-(4-(3-(4-methoxyphenoxy)pyrazin-2-yl)piperazin-1-yl)prop-2-en-1-one]
IC50 (NCI-H226 cells): 0.028 µM | pIC50 [1]: 8.52

C=CC(=O)N1CCC(c2nccnc2Oc2ccc(C(F)(F)F)cn2)CC1 [Example 75, 1-(4-(3-((5-(trifluoromethyl)pyridin-2-yl)oxy)pyrazin-2-yl)piperidin-1-yl)prop-2-en-1-one]
IC50 (NCI-H226 cells): 0.112 µM | pIC50 [1]: 8.57

C=CC(=O)N1CC(Nc2nccnc2N2CC(c3ccc(F)cc3)C2)C1 [Example 108, 1-(3-((3-(3-(4-fluorophenyl)azetidin-1-yl)pyrazin-2-yl)amino)azetidin-1-yl)prop-2-en-1-one]
IC50 (NCI-H226 cells): > 10 µM

C=C(F)C(=O)N1CC(Nc2nccnc2N2CC(c3ccc(F)cc3)C2)C1 [Example 109, 2-fluoro-1-(3-((3-(3-(4-fluorophenyl)azetidin-1-yl)pyrazin-2-yl)amino)azetidin-1-yl)prop-2-en-1-one]
IC50 (NCI-H226 cells): > 10 µM

C=CC(=O)N1CCC(c2ncc(C)nc2Oc2ccc(C(F)(F)F)nc2)CC1 [Example 116, 1-(4-(5-methyl-3-((6-(trifluoromethyl)pyridin-3-yl)oxy)pyrazin-2-yl)piperidin-1-yl)prop-2-en-1-one]
IC50 (NCI-H226 cells): 0.022 µM

C=C(F)C(=O)N1CCC(c2ncc(C)nc2Oc2ccc(C(F)(F)F)nc2)CC1 [Example 117, 2-fluoro-1-(4-(5-methyl-3-((6-(trifluoromethyl)pyridin-3-yl)oxy)pyrazin-2-yl)piperidin-1-yl)prop-2-en-1-one]
IC50 (NCI-H226 cells): 0.158 µM

C=CC(=O)N1CCC(c2nccn(-c3ncc(C(F)(F)F)cn3)c2=O)CC1 [Example 118, 3-(1-acryloylpiperidin-4-yl)-1-(5-(trifluoromethyl)pyrimidin-2-yl)pyrazin-2(1H)-one]
IC50 (NCI-H226 cells): > 10 µM

C=C(F)C(=O)N1CCC(c2cncnc2Oc2ccc(C(F)(F)F)nc2)CC1 [Example 127, 2-fluoro-1-(4-(4-((6-(trifluoromethyl)pyridin-3-yl)oxy)pyrimidin-5-yl)piperidin-1-yl)prop-2-en-1-one]
IC50 (NCI-H226 cells): 66.8 µM
